Test results reported in patent publication US7312245B2 (priority 2001, dated 2007).
Like-named read-outs stand apart in the source and are kept apart here.

Legend:
Type in all cases: in vivo
Pyricularia oryzae [1] = conditions: spray application of wettable powder diluted to 500 ppm; rice Koshihikari 2-leaf stage; spray-inoculated with Pyricularia oryzae spores; examined after 7 days
Pyricularia oryzae [2] = conditions: granules applied to water surface at 3 kg/10 ares; rice Koshihikari; inoculated 30 days after application; lesions checked after 1 week
Pyricularia oryzae [3] = conditions: nursery box treated with granules 50 g per box; rice Koshihikari; inoculated 30 days after transplantation; lesions counted after 1 week

CCC(CNC(=O)Oc1ccccc1)NC(=O)OC (stereo not drawn) [Formula (8), reference compound]
Grade of Effect (preventive value, rice blast controlling effect) (Pyricularia oryzae [1]): D (less than 50%) | Grade of Effect (preventive value, rice blast controlling effect) (Pyricularia oryzae [2]): C (less than 50%) | Grade of Effect (preventive value, rice blast controlling effect) (Pyricularia oryzae [3]): C (less than 50%)

Cc1ccc(C(=O)NCC(NC(=O)OCc2cccs2)C(C)C)cc1 (stereo not drawn) [compound 1171]
Grade of Effect (preventive value, rice blast controlling effect) (Pyricularia oryzae [1]): A (100%) | Grade of Effect (preventive value, rice blast controlling effect) (Pyricularia oryzae [2]): A (From 80% to 100%) | Grade of Effect (preventive value, rice blast controlling effect) (Pyricularia oryzae [3]): A (From 80% to 100%)

C#CCOC(=O)NC(CNC(=O)c1ccc(Cl)cc1)C(C)C (stereo not drawn) [compound 804]
Grade of Effect (preventive value, rice blast controlling effect) (Pyricularia oryzae [1]): A (100%) | Grade of Effect (preventive value, rice blast controlling effect) (Pyricularia oryzae [2]): A (From 80% to 100%) | Grade of Effect (preventive value, rice blast controlling effect) (Pyricularia oryzae [3]): A (From 80% to 100%)

Cc1ccc(COC(=O)NC(CNC(=O)c2ccc(Cl)cc2)C(C)C)cc1 (stereo not drawn) [compound 1049]
Grade of Effect (preventive value, rice blast controlling effect) (Pyricularia oryzae [1]): A (100%) | Grade of Effect (preventive value, rice blast controlling effect) (Pyricularia oryzae [2]): A (From 80% to 100%) | Grade of Effect (preventive value, rice blast controlling effect) (Pyricularia oryzae [3]): A (From 80% to 100%)
